Converted amounts (≈) assume the structure as drawn. Where two headings read alike, the source gives them in different places.
Key:
[1] = test system: NO generated by LPS-induced macrophages; assay: Nitric oxide assay (Griess) in LPS-induced macrophages; assay type: cell-based, murine; settings: Mus musculus, Macrophage, 18 h, LPS 1 µg/mL, read-out: % NO Production (Mean ± SEM)
Outline: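 Murine macrophages (1 × 10^6/well) pre-treated 2 h with compound at 100, 50, 10 or 1 µM, then LPS 1 µg/mL for 18 h. Nitrite in medium measured with Griess reagent at 540 nm against a NaNO2 standard curve; piroxicam as positive control, t-test for significance.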

[2] = MTT cytotoxicity against raw macrophages; assay type: cell-based, albino rats; settings: rat; for viability at 24 h, 1 µM / viability at 24 h, 10 µM / viability at 24 h, 50 µM / viability at 24 h, 100 µM: peritoneal macrophages (raw macrophages), raw macrophages, MTT, read-out: % Cell Viability; for IC50 at 24 h: primary peritoneal macrophages, mean ± SEM, n = 3
Outline: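 Peritoneal macrophages from albino rats were treated for 24 h at 37 °C, 5% CO2 with test compounds at 100, 50, 10 and 1 µM or vehicle, from DMSO stocks. MTT was then added for 2 h, formazan dissolved in DMSO and absorbance read at 570 nm. % viability = blank-corrected sample over blank-corrected control ×100.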

[3] = test system: Hep-2C cells; assay: MTT assay against Hep-2C cells; assay type: cell-based, Human; settings: Homo sapiens, Hep2C, read-out: IC50 (Mean ± SEM) Hep-2C Cells
Outline: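 Human cervix carcinoma Hep-2C cells in DMEM with 10% FCS, seeded at 1 × 10^6 and exposed to test compounds for 24, 48 and 72 h. MTT (1 mg per mL) added for 4 h, formazan dissolved in DMSO, absorbance at 570 nm. Viability % versus untreated cells after blank subtraction.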

[4] = DPPH free radical scavenging assay; settings: mean ± SEM, n = 3; for IC50 (DPPH radical scavenging): concentration to scavenge 50% of the DPPH radicals
Outline: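 Compounds at 200, 66.6, 22.2 and 7.4 µg/mL were mixed with DPPH radical, with DMSO as the negative control. Absorbance was read at 630 nm, and % scavenging was calculated as (1 − Abs/Abc) × 100 against the control.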

Row | IC50 (DPPH radical scavenging) [4] [µg/mL] | Compound | activity at 1 µM [1] [%] | activity at 10 µM [1] [%] | activity at 50 µM [1] [%] | activity at 100 µM [1] [%] | viability at 24 h, 1 µM ([2]; albino) [%] | viability at 24 h, 10 µM ([2]; albino) [%] | viability at 24 h, 50 µM ([2]; albino) [%] | viability at 24 h, 100 µM ([2]; albino) [%] | IC50 at 24 h ([2]; albino) [µM] | IC50 ([3]; 24 h) [µM] | IC50 ([3]; 48 h) [µM] | IC50 ([3]; 72 h) [µM] | % DPPH Scavenging Activity ([4]; 7.4 µg/mL) [%] | % DPPH Scavenging Activity ([4]; 22.22 µg/mL) [%] | % DPPH Scavenging Activity ([4]; 66.66 µg/mL) [%] | % DPPH Scavenging Activity ([4]; 200 µg/mL) [%] | IC50 at 24 h [2] [µM]
1 | 44.22 ± 0.25 (≈ 192 µM) | c1ccc2c(c1)CCCN2CN1CCCCC1 [SF1, 1-(Piperidine-1-ylmethyl) 1,2,3,4-tetrahahydroquinoline] | 27.8 ± 0.45 | 26 ± 0.43 | 23.7 ± 0.41 | 17.3 ± 0.35 | 58 ± 0.76 | 48 ± 1.34 | 47 ± 0.84 | 44.7 ± 0.5 | 6.232 ± 0.01 | 28 ± 1.07 | 21.8 ± 1.1 | 14.8 ± 1.07 | 11.91 ± 0.32 | 27.76 ± 0.11 | 50.08 ± 0.18 | 62.45 ± 0.12 | 
2 | 56.63 ± 0.32 (≈ 231 µM) | CN1CCN(CN2CCCc3ccccc32)CC1 [SF5] | 51.43 ± 0.48 | 43 ± 0.45 | 28.6 ± 0.44 | 21.9 ± 0.38 | 98 ± 1.01 | 74 ± 0.42 | 67 ± 0.84 | 60 ± 1.2 | 6.181 ± 0.05 | 21.3 ± 1.09 | 18 ± 1.05 | 16.8 ± 1.07 | 7.76 ± 0.23 | 17.39 ± 0.16 | 28.77 ± 0.14 | 45.24 ± 0.28 | 
3 | 44.4 ± 0.29 (≈ 141 µM) | c1ccc(N(CN2CCCc3ccccc32)c2ccccc2)cc1 [SF7, N-((3,4-dihydroquinolin-1(2H)-yl)methyl)-N-phenylaniline] | 69.71 ± 0.65 | 63.12 ± 0.61 | 21.4 ± 0.48 | 17.5 ± 0.45 | 96 ± 0.89 | 95 ± 0.96 | 84 ± 0.77 | 58 ± 0.83 | 18.64 ± 0.13 | 26.7 ± 1.1 | 21.6 ± 1.05 | 16.8 ± 1.03 | 9.28 ± 0.13 | 26.76 ± 0.17 | 50.48 ± 0.054 | 64.48 ± 0.18 | 18.6 ± 0.13

— publication PMC7321408, “One-Pot Multicomponent Synthesis and Bioevaluation of Tetrahydroquinoline Derivatives as Potential Antioxidants, α-Amylase Enzyme Inhibitors, Anti-Cancerous and Anti-Inflammatory Agents” (Molecules, 2020)
